Test results reported in patent publication US12122763B2, “Substituted piperidines for androgen receptor degradation” (UBIX THERAPEUTICS, INC., priority 2020, dated 2024).

Molecular target: T1, Androgen Receptor (AR) protein (Homo sapiens, UniProt P10275, T878A)
T1 construct: endogenous in cells; host or cells: LNCaP
Experiment: Androgen Receptor (AR) protein degradation assay in LNCaP cells, western blotting
Type: cell-based
Settings: 20 h; for inhibition at 0.01 µM: 0.01 μM compound; for inhibition at 0.1 µM: 0.1 μM compound; for inhibition at 1 µM: 1 μM compound; for inhibition at 10 µM: 10 μM compound
How it was run: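 LNCaP prostate cancer cells were cultured 3 days, then treated with compound for 20 h. Lysates in 1% SDS buffer were normalised by BCA, and 8 μg protein was run on 4–12% Bis-Tris gels. AR was immunoblotted with chemiluminescence, using GAPDH/β-actin as loading controls.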

T1 sequence (P10275 whole entry T878A): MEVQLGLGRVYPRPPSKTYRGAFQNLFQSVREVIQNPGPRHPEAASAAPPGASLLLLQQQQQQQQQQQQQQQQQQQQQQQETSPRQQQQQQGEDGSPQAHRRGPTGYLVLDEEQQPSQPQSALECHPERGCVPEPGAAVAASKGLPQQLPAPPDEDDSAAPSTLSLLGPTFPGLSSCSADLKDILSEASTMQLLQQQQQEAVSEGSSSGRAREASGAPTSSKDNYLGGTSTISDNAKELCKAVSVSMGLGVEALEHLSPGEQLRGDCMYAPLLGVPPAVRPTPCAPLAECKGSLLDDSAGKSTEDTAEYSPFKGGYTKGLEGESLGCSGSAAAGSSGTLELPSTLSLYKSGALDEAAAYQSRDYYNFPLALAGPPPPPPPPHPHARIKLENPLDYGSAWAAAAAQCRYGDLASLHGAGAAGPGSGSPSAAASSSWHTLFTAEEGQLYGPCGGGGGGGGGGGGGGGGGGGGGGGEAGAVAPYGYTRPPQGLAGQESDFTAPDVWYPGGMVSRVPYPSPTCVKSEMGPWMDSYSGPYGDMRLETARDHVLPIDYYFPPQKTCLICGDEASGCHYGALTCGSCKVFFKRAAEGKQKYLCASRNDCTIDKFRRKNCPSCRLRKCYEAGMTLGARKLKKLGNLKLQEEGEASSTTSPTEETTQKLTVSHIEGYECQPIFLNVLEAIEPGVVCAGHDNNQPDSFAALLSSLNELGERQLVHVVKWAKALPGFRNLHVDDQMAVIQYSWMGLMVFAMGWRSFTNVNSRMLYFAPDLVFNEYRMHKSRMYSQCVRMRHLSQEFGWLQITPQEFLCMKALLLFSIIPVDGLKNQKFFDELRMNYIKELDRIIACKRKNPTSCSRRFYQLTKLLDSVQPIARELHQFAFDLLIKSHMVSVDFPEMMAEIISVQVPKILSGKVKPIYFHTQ
T1 sequence (Q96SW2 whole entry partner): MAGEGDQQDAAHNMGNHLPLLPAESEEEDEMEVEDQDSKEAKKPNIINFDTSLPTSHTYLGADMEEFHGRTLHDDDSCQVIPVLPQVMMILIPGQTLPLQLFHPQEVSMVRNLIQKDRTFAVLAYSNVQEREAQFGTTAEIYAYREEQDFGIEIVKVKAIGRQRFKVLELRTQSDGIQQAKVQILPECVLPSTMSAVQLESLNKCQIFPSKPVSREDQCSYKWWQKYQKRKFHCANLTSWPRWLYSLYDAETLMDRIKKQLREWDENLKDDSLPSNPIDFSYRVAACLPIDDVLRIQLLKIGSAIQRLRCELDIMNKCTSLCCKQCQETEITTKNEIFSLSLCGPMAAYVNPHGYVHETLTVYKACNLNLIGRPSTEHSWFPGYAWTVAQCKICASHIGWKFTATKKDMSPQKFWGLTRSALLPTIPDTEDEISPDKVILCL

Structure (SMILES)	inhibition at 0.01 µM [%]	inhibition at 0.1 µM [%]	inhibition at 1 µM [%]	inhibition at 10 µM [%]
N#Cc1ccc(N2CCC(C(=O)Nc3ccc(N4CCC(CN5CCC6(CC5)CCN(c5ccc7c(c5)C(=O)N(C5CCC(=O)NC5=O)C7=O)CC6)CC4)cn3)CC2)cc1Cl (stereo not drawn) [Example 69, 1-(3-chloro-4-cyanophenyl)-N-(5-(4-((9-(2-(2,6-dioxopiperidin-3-yl)-1,3-dioxoisoindolin-5-yl)-3,9-diazaspiro[5.5]undecan-3-yl)methyl)piperidin-1-yl)pyridin-2-yl)piperidine-4-carboxamide]	40	83	85	82
N#Cc1ccc(N2CCC(C(=O)Nc3ccc(N4CCC(CN5CCN(C6CCN(c7ccc8c(c7)C(=O)N(C7CCC(=O)NC7=O)C8=O)CC6)CC5)CC4)cn3)CC2)cc1C(F)(F)F (stereo not drawn) [Example 70, 1-(4-cyano-3-(trifluoromethyl)phenyl)-N-(5-(4-((4-(1-(2-(2,6-dioxopiperidin-3-yl)-1,3-dioxoisoindolin-5-yl)piperidin-4-yl)piperazin-1-yl)methyl)piperidin-1-yl)pyridin-2-yl)piperidine-4-carboxamide]	85	99	99	97
N#Cc1ccc(N2CCC(C(=O)Nc3ccc(N4CCC(CN5CCN(C6CCN(c7ccc8c(c7)C(=O)N(C7CCC(=O)NC7=O)C8=O)CC6)CC5)CC4)cn3)CC2)cc1Cl (stereo not drawn) [Example 71, 1-(3-chloro-4-cyanophenyl)-N-(5-(4-((4-(1-(2-(2,6-dioxopiperidin-3-yl)-1,3-dioxoisoindolin-5-yl)piperidin-4-yl)piperazin-1-yl)methyl)piperidin-1-yl)pyridin-2-yl)piperidine-4-carboxamide]	75	97	98	98
N#Cc1ccc(N2CCC(F)(C(=O)Nc3ccc(N4CCC(CN5CCN(C6CCN(c7ccc8c(c7)C(=O)N(C7CCC(=O)NC7=O)C8=O)CC6)CC5)CC4)cn3)CC2)cc1C(F)(F)F (stereo not drawn) [Example 72, 1-(4-cyano-3-(trifluoromethyl)phenyl)-N-(5-(4-((4-(1-(2-(2,6-dioxopiperidin-3-yl)-1,3-dioxoisoindolin-5-yl)piperidin-4-yl)piperazin-1-yl)methyl)piperidin-1-yl)pyridin-2-yl)-4-fluoropiperidine-4-carboxamide]	59	94	97	
N#Cc1ncc(N2CCC(C(=O)Nc3ccc(N4CCC(CN5CCN(C6CCN(c7ccc8c(c7)C(=O)N(C7CCC(=O)NC7=O)C8=O)CC6)CC5)CC4)cn3)CC2)cc1C(F)(F)F (stereo not drawn) [Example 73, 1-(6-cyano-5-(trifluoromethyl)pyridin-3-yl)-N-(5-(4-((4-(1-(2-(2,6-dioxopiperidin-3-yl)-1,3-dioxoisoindolin-5-yl)piperidin-4-yl)piperazin-1-yl)methyl)piperidin-1-yl)pyridin-2-yl)piperidine-4-carboxamide]	55	88	92	
N#Cc1ncc(N2CCC(F)(C(=O)Nc3ccc(N4CCC(CN5CCN(C6CCN(c7ccc8c(c7)C(=O)N(C7CCC(=O)NC7=O)C8=O)CC6)CC5)CC4)cn3)CC2)cc1C(F)(F)F (stereo not drawn) [Example 74, 1-(6-cyano-5-(trifluoromethyl)pyridin-3-yl)-N-(5-(4-((4-(1-(2-(2,6-dioxopiperidin-3-yl)-1,3-dioxoisoindolin-5-yl)piperidin-4-yl)piperazin-1-yl)methyl)piperidin-1-yl)pyridin-2-yl)-4-fluoropiperidine-4-carboxamide]	20	66	83	
N#Cc1ccc(N2CCC(C(=O)Nc3ccc(N4CCC(CN5CCN(C6CCN(c7ccc8c(n7)CN(C7CCC(=O)NC7=O)C8=O)CC6)CC5)CC4)cn3)CC2)cc1C(F)(F)F (stereo not drawn) [Example 75, 1-(4-cyano-3-(trifluoromethyl)phenyl)-N-(5-(4-((4-(1-(6-(2,6-dioxopiperidin-3-yl)-5-oxo-6,7-dihydro-5H-pyrrolo[3,4-b]pyridin-2-yl)piperidin-4-yl)piperazin-1-yl)methyl)piperidin-1-yl)pyridin-2-yl)piperidine-4-carboxamide]	82	97	90	
N#Cc1ccc(N2CCC(C(=O)Nc3ccc(N4CCC(CN5CCN(C6CCN(c7cccc8c7C(=O)N(C7CCC(=O)NC7=O)C8=O)CC6)CC5)CC4)cn3)CC2)cc1C(F)(F)F (stereo not drawn) [Example 76, 1-(4-cyano-3-(trifluoromethyl)phenyl)-N-(5-(4-((4-(1-(2-(2,6-dioxopiperidin-3-yl)-1,3-dioxoisoindolin-4-yl)piperidin-4-yl)piperazin-1-yl)methyl)piperidin-1-yl)pyridin-2-yl)piperidine-4-carboxamide]	36	85	88	
N#Cc1ccc(N2CCC(C(=O)Nc3ccc(N4CCC(CN5CC(N6CCN(c7ccc8c(c7)C(=O)N(C7CCC(=O)NC7=O)C8=O)CC6)C5)CC4)cn3)CC2)cc1C(F)(F)F (stereo not drawn) [Example 77, 1-(4-cyano-3-(trifluoromethyl)phenyl)-N-(5-(4-((3-(4-(2-(2,6-dioxopiperidin-3-yl)-1,3-dioxoisoindolin-5-yl)piperazin-1-yl)azetidin-1-yl)methyl)piperidin-1-yl)pyridin-2-yl)piperidine-4-carboxamide]	46	96	97	
N#Cc1ccc(N2CCC(C(=O)Nc3ccc(N4CCC(CN5CC(N6CCN(c7ccc8c(n7)CN(C7CCC(=O)NC7=O)C8=O)CC6)C5)CC4)cn3)CC2)cc1C(F)(F)F (stereo not drawn) [Example 78, 1-(4-cyano-3-(trifluoromethyl)phenyl)-N-(5-(4-((3-(4-(6-(2,6-dioxopiperidin-3-yl)-5-oxo-6,7-dihydro-5H-pyrrolo[3,4-b]pyridin-2-yl)piperazin-1-yl)azetidin-1-yl)methyl)piperidin-1-yl)pyridin-2-yl)piperidine-4-carboxamide]	49	88	71	
N#Cc1ccc(N2CCC(C(=O)Nc3ccc(N4CCC(CN5CC(CN6CCN(c7ccc8c(c7)C(=O)N(C7CCC(=O)NC7=O)C8=O)CC6)C5)CC4)cn3)CC2)cc1C(F)(F)F (stereo not drawn) [Example 79, 1-(4-cyano-3-(trifluoromethyl)phenyl)-N-(5-(4-((3-((4-(2-(2,6-dioxopiperidin-3-yl)-1,3-dioxoisoindolin-5-yl)piperazin-1-yl)methyl)azetidin-1-yl)methyl)piperidin-1-yl)pyridin-2-yl)piperidine-4-carboxamide]	31	94	95	
N#Cc1ccc(N2CCC(C(=O)Nc3ccc(N4CCC(CN5CC(CN6CCN(c7ccc8c(n7)CN(C7CCC(=O)NC7=O)C8=O)CC6)C5)CC4)cn3)CC2)cc1C(F)(F)F (stereo not drawn) [Example 80, 1-(4-cyano-3-(trifluoromethyl)phenyl)-N-(5-(4-((3-((4-(6-(2,6-dioxopiperidin-3-yl)-5-oxo-6,7-dihydro-5H-pyrrolo[3,4-b]pyridin-2-yl)piperazin-1-yl)methyl)azetidin-1-yl)methyl)piperidin-1-yl)pyridin-2-yl)piperidine-4-carboxamide]	34	90	57	
N#Cc1ccc(N2CCC(C(=O)Nc3ccc(N4CCC(CN5CCC(CN6CCN(c7ccc8c(c7)C(=O)N(C7CCC(=O)NC7=O)C8=O)CC6)CC5)CC4)cn3)CC2)cc1C(F)(F)F (stereo not drawn) [Example 81, 1-(4-cyano-3-(trifluoromethyl)phenyl)-N-(5-(4-((4-((4-(2-(2,6-dioxopiperidin-3-yl)-1,3-dioxoisoindolin-5-yl)piperazin-1-yl)methyl)piperidin-1-yl)methyl)piperidin-1-yl)pyridin-2-yl)piperidine-4-carboxamide]	44	87	96	
N#Cc1ccc(N2CCC(C(=O)Nc3ccc(N4CCC(CN5CC[C@H](CN6CCN(c7ccc8c(c7)C(=O)N(C7CCC(=O)NC7=O)C8=O)CC6)C5)CC4)cn3)CC2)cc1C(F)(F)F (stereo partly drawn) [Example 82, 1-(4-cyano-3-(trifluoromethyl)phenyl)-N-(5-(4-(((3S)-3-((4-(2-(2,6-dioxopiperidin-3-yl)-1,3-dioxoisoindolin-5-yl)piperazin-1-yl)methyl)pyrrolidin-1-yl)methyl)piperidin-1-yl)pyridin-2-yl)piperidine-4-carboxamide]	33	87	95	
N#Cc1ccc(N2CCC(C(=O)Nc3ccc(N4CCC(CN5CC[C@@H](CN6CCN(c7ccc8c(c7)C(=O)N(C7CCC(=O)NC7=O)C8=O)CC6)C5)CC4)cn3)CC2)cc1C(F)(F)F (stereo partly drawn) [Example 83, 1-(4-cyano-3-(trifluoromethyl)phenyl)-N-(5-(4-(((3R)-3-((4-(2-(2,6-dioxopiperidin-3-yl)-1,3-dioxoisoindolin-5-yl)piperazin-1-yl)methyl)pyrrolidin-1-yl)methyl)piperidin-1-yl)pyridin-2-yl)piperidine-4-carboxamide]	25	87	96	
CN(CC1CCN(c2ccc(NC(=O)C3CCN(c4ccc(C#N)c(C(F)(F)F)c4)CC3)nc2)CC1)CC1CCN(c2ccc3c(c2)C(=O)N(C2CCC(=O)NC2=O)C3=O)CC1 (stereo not drawn) [Example 84, 1-(4-cyano-3-(trifluoromethyl)phenyl)-N-(5-(4-((((1-(2-(2,6-dioxopiperidin-3-yl)-1,3-dioxoisoindolin-5-yl)piperidin-4-yl)methyl)(methyl)amino)methyl)piperidin-1-yl)pyridin-2-yl)piperidine-4-carboxamide]	59	89	88	
